Test system: 1A9 ovarian cancer cells
Test: Anti-proliferative activity in 1A9 ovarian cancer cells
Type: cell-based
Conditions: for Antiproliferative activity (in words): antiproliferative assays, highest concentration tested 50 μM

Structure (SMILES)	Antiproliferative activity (in words)	Fold more active than epi-tubulysin V in the antiproliferative assays (antiproliferative assays (1A9 and MCF-7), relative to epi-tubulysin V)
CC[C@H](C)[C@H](NC(=O)[C@@H](C)N(C)C)C(=O)N[C@H](CC(=O)c1nc(C(=O)N[C@@H](Cc2ccccc2)C[C@H](C)C(=O)O)cs1)C(C)C [Compound 21]	not active	–
CC[C@H](C)[C@H](NC(=O)[C@@H](C)N(C)C)C(=O)N[C@H](CC(=O)c1nc(C(=O)N[C@H](CCC(=O)O)Cc2ccccc2)cs1)C(C)C [Compound 22]	sub-micromolar activity	–
CC[C@H](C)[C@H](NC(=O)[C@H]1CCCCN1C)C(=O)N[C@H](C[C@@H](O)c1nc(C(=O)N[C@@H](Cc2ccccc2)C[C@H](C)C(=O)O)cs1)C(C)C [Compound 4, tubulysin V]	–	30–45 fold
